According to article PMC6615598, “Novel antibiotics effective against gram-positive and -negative multi-resistant bacteria with limited resistance” (PLoS Biology, 2019):
Several values for one entry are separate records, joined by “and”; a condition that tells them apart may be missing. Equal values may be shown once.

Tests used:
S. aureus = test: Intracellular ATP levels of SCV versus normal colonies from skin abscesses; type: cell-based; details: individual values
Method: (§1) For the cutaneous abscess model, the mice were randomly divided into 5 sets. The mice were anesthetized with isoflurane, their dorsal fur shaved, and their skin disinfected with 70% ethanol. An overnight culture of S. aureus MRSA or P. aeruginosa LESB58 was washed with 0.9% NaCl, and then a subcutaneous injection of 2 × 10^9 CFUs and an equal amount of sterile Cytodex microcarrier beads (20 mg.ml^−1, Sigma) for S. aureus MRSA, or 10^8 CFUs for P. aeruginosa were injected into the shaved area. […] Mice were monitored every day and then euthanized with CO2 on Day 6 or on Day 3. Abscesses were excised, measured, and homogenized in PBS using an Ultra-Turax. Serial dilutions of the samples were plated on BHI (MRSA) or 2YT medium (LESB58) plates and then incubated overnight at 37°C. Afterward, the CFUs were counted and expressed as log CFU/ml. Dermonecrosis areas were calculated according to the formula π × L × W. ATP levels were determined with an ATP assay kit (Promega) according to manufacturer instructions on sets of 5 colonies harboring the SCV phenotype, and sets of 5 colonies harboring a normal phenotype, after growth on BHI plates.

S. aureus MRSA = test: Cutaneous abscess mouse model (lesion size, CFU); type: in vivo, mice; details: cutaneous abscesses from MRSA in mice; IV 24 h post-infection, 1.5 mg.kg-1; individual values
Method: as §1

K. pneumoniae 13825 = system: K. pneumoniae 13825
Method: (§2) (10−4 M final concentrations). At selected time intervals, 100 μl of reaction mixture was collected, quenched by 200 μl 95% EtOH, and adjusted at pH 2 to prevent peptide adsorption to serum proteins. […] Supernatants were analyzed by RP-HPLC on an Xbridge C18 column with a linear gradient of water, 0.08% TFA, and acetonitrile with 1% TFA. HPLC peak areas were used to calculate the percentages of intact compound remaining at the various time points. MIC and MBC values were determined in triplicate in many ESKAPE clinical isolates, including a dozen MDR S. aureus, by the broth microdilution method. Peptidomimetics and antibiotics were assayed in a concentration range of 1 to 128 μM. The bacterial inoculum (5 × 10^5 colony-forming units [CFUs]/well) was prepared in MHB or CAMHB (150 μl). A Biotek Synergy 2 spectrophotometer was used to record the results after 18–20 h incubation at 35°C (±2°C). […] After every hour of culture for 4 h, serial dilutions were plated on BHI plates and incubated overnight at 37°C, and then the CFUs were counted and expressed as log CFU/ml. Phosphate-buffered saline (PBS)-exposed S. aureus MRSA was included as a control.

P. aeruginosa 15637 = system: P. aeruginosa 15637
Method: as §2

A. baumanii 7985 = system: A. baumanii 7985
Method: as §2

Escherichia coli 13090 = system: Escherichia coli 13090
Method: as §2

P. aeruginosa 15641 = system: P. aeruginosa 15641
Method: as §2

P. aeruginosa 15643 = system: P. aeruginosa 15643
Method: as §2

[1] = system: Enterobacter cloacae ATCC13047; details: Enterobacter cloacae ATCC13047
Method: as §2

Escherichia coli K12 = details: E. coli K12
Method: as §2

Escherichia coli 293 = system: Escherichia coli 293
Method: as §2

A. baumanii 11896 = system: A. baumanii 11896
Method: as §2

Escherichia coli 066 = system: Escherichia coli 066
Method: as §2

Escherichia coli 750 = system: Escherichia coli 750
Method: as §2

Escherichia coli 508 = system: Escherichia coli 508
Method: as §2

Escherichia coli 146 = system: Escherichia coli 146
Method: as §2

P. aeruginosa PA14 = details: P. aeruginosa PA14
Method: as §2

P. aeruginosa 15638 = system: P. aeruginosa 15638
Method: as §2

Escherichia coli PV = details: E. coli PV
Method: as §2

Escherichia coli 758 = system: Escherichia coli 758
Method: as §2

Escherichia coli MCR−1 = system: Escherichia coli MCR−1
Method: as §2

Escherichia coli 444 = system: Escherichia coli 444
Method: as §2

Escherichia coli ML35P = details: E. coli ML35P
Method: as §2

K. pneumoniae 13829 = system: K. pneumoniae 13829
Method: as §2

Escherichia coli 283 = system: Escherichia coli 283
Method: as §2

P. aeruginosa 15644 = system: P. aeruginosa 15644
Method: as §2

[2] = Stability in mouse serum (half-life); type: in vitro ADME; details: 25% mouse serum, pre-incubated 15 min at 37°C, peptide 10^−4 M, RP-HPLC peak areas, mean of biological triplicates
Method: as §2
(§3) Supplementary file pbio.3000337.s013.docx: S7 Table Peptide half-lives in human and mouse sera. […] Peptide amounts and half-lives were determined by HPLC. Experiments were conducted on 25% human or mouse sera. Values are shown in minutes. The mean values correspond to biological triplicates. HPLC, high pressure liquid chromatography. (DOCX) Click here for additional data file.

[3] = Stability in human serum (half-life); type: in vitro ADME; details: 25% human serum, pre-incubated 15 min at 37°C, peptide 10^−4 M, RP-HPLC peak areas, mean of biological triplicates
Method: as §2, §3

[4] = broth microdilution, 3 independent experiments

CN[C@H](CC(C)C)C(=O)N[C@H]1C(=O)N[C@@H](CC(N)=O)C(=O)N[C@H]2C(=O)N[C@H]3C(=O)N[C@H](C(=O)N[C@H](C(=O)O)c4cc(O)cc(O)c4-c4cc3ccc4O)[C@H](O)c3ccc(c(Cl)c3)Oc3cc2cc(c3O[C@@H]2O[C@H](CO)[C@@H](O)[C@H](O)[C@H]2O[C@H]2C[C@](C)(N)[C@H](O)[C@H](C)O2)Oc2ccc(cc2Cl)[C@H]1O [Vanco]
Intracellular ATP level, 'normal growing' (S. aureus; 'normal growing' colonies from MRSA abscesses of mice treated IV with 1.5 mg.kg-1): 122379 AU and 119801 AU and 111813 AU and 113023 AU and 103234 AU
Intracellular ATP level, SCV (S. aureus; SCV from MRSA abscesses of mice treated IV with 1.5 mg.kg-1): 20326.9 AU and 5706.67 AU and 6923.08 AU and 10333.3 AU and 15090.9 AU
Area of dermonecrosis (S. aureus MRSA): 88.6 mm2 and 44.4 mm2 and 88.5 mm2 and 82.8 mm2 and 67.1 mm2 and 13 mm2 and 197.8 mm2 and 164.7 mm2 and 166.7 mm2 and 90 mm2

polymyxin B [reference compound]
MBC/MIC (K. pneumoniae 13825; K. pneumoniae 13825): 2
MIC (K. pneumoniae 13825; K. pneumoniae 13825, clinical strain, Caen hemoculture, broth microdilution, 3 independent experiments): 2 (2.6) μM
MBC/MIC (P. aeruginosa 15637; P. aeruginosa 15637): 2
MIC (P. aeruginosa 15637; P. aeruginosa 15637, clinical strain, Caen hemoculture, broth microdilution, 3 independent experiments): 1 (1.3) μM
MBC/MIC (A. baumanii 7985; A. baumanii 7985): 1
MIC (A. baumanii 7985; A. baumanii 7985, clinical strain, Caen hemoculture, broth microdilution, 3 independent experiments): 1 (1.3) μM
MBC/MIC (Escherichia coli 13090; E. coli 13090): 1
MIC (Escherichia coli 13090; E. coli 13090, clinical strain, Caen hemoculture, broth microdilution, 3 independent experiments): 0.5 (0.65) μM
MBC/MIC (P. aeruginosa 15641; P. aeruginosa 15641): 2
MIC (P. aeruginosa 15641; P. aeruginosa 15641, clinical strain, Caen hemoculture, broth microdilution, 3 independent experiments): 1 (1.3) μM
MBC/MIC (P. aeruginosa 15643; P. aeruginosa 15643): 2
MIC (P. aeruginosa 15643; P. aeruginosa 15643, clinical strain, Caen hemoculture, broth microdilution, 3 independent experiments): 0.5 (0.65) μM
MBC/MIC [1]: 2
MIC [1, 4]: 8 (10.4) μM
MBC/MIC (Escherichia coli K12): 1
MIC (Escherichia coli K12; [4]): 0.5 (0.65) μM
MBC/MIC (Escherichia coli 293; E. coli 293): 1
MIC (Escherichia coli 293; E. coli 293, clinical strain, Rennes urinary catheter, broth microdilution, 3 independent experiments): 0.5 (0.65) μM
MBC/MIC (A. baumanii 11896; A. baumanii 11896): 2
MIC (A. baumanii 11896; A. baumanii 11896, clinical strain, Caen hemoculture, broth microdilution, 3 independent experiments): 1 (1.3) μM
MBC/MIC (Escherichia coli 066; E. coli 066): 1
MIC (Escherichia coli 066; E. coli 066, clinical strain, Rennes urinary catheter, broth microdilution, 3 independent experiments): 1 (1.3) μM
MBC/MIC (Escherichia coli 750; E. coli 750): 1
MIC (Escherichia coli 750; E. coli 750, clinical strain, Rennes urinary catheter, broth microdilution, 3 independent experiments): 1 (1.3) μM
MBC/MIC (Escherichia coli 508; E. coli 508): 1
MIC (Escherichia coli 508; E. coli 508, clinical strain, Rennes urinary catheter, broth microdilution, 3 independent experiments): 0.5 (0.65) μM
MBC/MIC (Escherichia coli 146; E. coli 146): 1
MIC (Escherichia coli 146; E. coli 146, clinical strain, Rennes urinary catheter, broth microdilution, 3 independent experiments): 1 (1.3) μM
MBC/MIC (P. aeruginosa PA14): 2
MIC (P. aeruginosa PA14; [4]): 0.5 (0.65) μM
MBC/MIC (P. aeruginosa 15638; P. aeruginosa 15638): 2
MIC (P. aeruginosa 15638; P. aeruginosa 15638, clinical strain, Caen hemoculture, broth microdilution, 3 independent experiments): 1 (1.3) μM
MBC/MIC (Escherichia coli PV): 1
MIC (Escherichia coli PV; clinical strain, Rennes vascular prosthetics, broth microdilution, 3 independent experiments): 0.5 (0.65) μM
MBC/MIC (Escherichia coli 758; E. coli 758): 1
MIC (Escherichia coli 758; E. coli 758, clinical strain, Rennes urinary catheter, broth microdilution, 3 independent experiments): 0.5 (0.65) μM
MBC/MIC (Escherichia coli MCR−1; E. coli MCR−1): 1
MIC (Escherichia coli MCR−1; E. coli MCR−1, clinical strain, Caen hemoculture, broth microdilution, 3 independent experiments): 2 (2.6) μM
MBC/MIC (Escherichia coli 444; E. coli 444): 1
MIC (Escherichia coli 444; E. coli 444, clinical strain, Rennes urinary catheter, broth microdilution, 3 independent experiments): 0.5 (0.65) μM
MBC/MIC (Escherichia coli ML35P): 1
MBC/MIC (K. pneumoniae 13829; K. pneumoniae 13829): 2
MIC (K. pneumoniae 13829; K. pneumoniae 13829, clinical strain, Caen hemoculture, broth microdilution, 3 independent experiments): 8 (10.4) μM
MBC/MIC (Escherichia coli 283; E. coli 283): 1
MIC (Escherichia coli 283; E. coli 283, clinical strain, Rennes urinary catheter, broth microdilution, 3 independent experiments): 0.5 (0.65) μM
MBC/MIC (P. aeruginosa 15644; P. aeruginosa 15644): 2
MIC (P. aeruginosa 15644; P. aeruginosa 15644, clinical strain, Caen hemoculture, broth microdilution, 3 independent experiments): 1 (1.3) μM
Half-life in mouse serum [2]: 10.7 ± 2.7 h
Half-life in human serum [3]: 23 ± 3.33 h
